PMC11320734 (ACS Pharmacology & Translational Science, 2024)
Values joined by “and” are separate entries in the source; they are usually repeats but may differ in a detail not shown here. Equal entries are not always repeated. Where two headings read alike, the source gives them in different places.

Assays:
human wild type CB2R = human wild type CB2R (Homo sapiens, UniProt P34972); experiment: [35S]GTPγS binding assay (G-protein activation); type: biochemical; parameters: host or cells: CHO cells (Pathhunter)
[1] = Rodent single-dose PK studies (summary rats and mice); type: in vivo
Procedure: To characterize the pharmacokinetic behavior of RNB-61, studies in rodents were conducted at the in vivo facility of F. Hoffmann-La Roche Ltd. (Basel, Switzerland). The plasma-concentration time profile was studied in rodents after single-dose RNB-61 administration by oral gavage (p.o. microsuspension excipients 7.5% gelatin/0.62% NaCl) and intravenous bolus injection (i.v. solution, excipients NMP:NaCl (30:70)). Three groups of male Wistar rats (n = 2 per group) were administered RNB-61 either at 1 mg kg^–1 i.v., 3 mg kg^–1 p.o., or 26 mg kg^–1 p.o. Plasma samples were drawn at 0.083, 0.25, 0.5, 1, 2, 4, 8, and 24 postdose in the i.v. group and at 0.25, 0.5, 0.75, 1.5, 3, 5, 8, and 24 h postdose in the p.o. groups. The samples were analyzed for RNB-61 concentration by LC/MS-MS. For the LC/MS-MS analysis, and the samples were prepared by adding 100 uL to 400 uL ACN with ISTD (100 ng/mL Bosantan in ACN/MeOH 1/1), stirring, and centrifuging (4000 rpm, 65’). 100 uL of the supernatant were pipetted and diluted with 400 μL H2O at pH 3. The analytes were separated on a Restek C18 column (5 μm, 1.0 × 3 mm). The mobile phase consisted of water containing 0.1% HCOOH as solvent A and ACN containing 0.1% HCOOH as solvent B. The gradient curve starting with 5% B was changed to 90% B between 0.4 and 0.6 min and further increased to 95% B between 0.6 and 1.2 min. This was maintained until 1.4 min and then reduced and kept at 5% B between 1.45 and 2.0 min. The mass spectrometer was operated in the positive mode. All LC-MS/MS was done using the Agilent RapidFire Analyzer software (version 4.3). The pharmacokinetic parameters were estimated by noncompartmental analysis in the Certara WinNonlin software (version 5.3). A similar study design was run in mice with three groups receiving 2 mg kg^–1 i.v., 4 mg kg^–1 p.o., or 26 mg kg^–1 p.o., and plasma sampling occurring in a composite profile (n = 2 for each time point) up to 7 or 24 h postdose. Male C57/BL6 mice (n = 5 per group) were used to study the influence of P-gp efflux on brain penetration. […]

[2] = Single-dose pharmacokinetics in mice; type: in vivo; details: mouse, plasma
Procedure: To characterize the pharmacokinetic behavior of RNB-61, studies in rodents were conducted at the in vivo facility of F. Hoffmann-La Roche Ltd. (Basel, Switzerland). The plasma-concentration time profile was studied in rodents after single-dose RNB-61 administration by oral gavage (p.o. microsuspension excipients 7.5% gelatin/0.62% NaCl) and intravenous bolus injection (i.v. solution, excipients NMP:NaCl (30:70)). Three groups of male Wistar rats (n = 2 per group) were administered RNB-61 either at 1 mg kg^–1 i.v., 3 mg kg^–1 p.o., or 26 mg kg^–1 p.o. Plasma samples were drawn at 0.083, 0.25, 0.5, 1, 2, 4, 8, and 24 postdose in the i.v. group and at 0.25, 0.5, 0.75, 1.5, 3, 5, 8, and 24 h postdose in the p.o. groups. The samples were analyzed for RNB-61 concentration by LC/MS-MS. For the LC/MS-MS analysis, and the samples were prepared by adding 100 uL to 400 uL ACN with ISTD (100 ng/mL Bosantan in ACN/MeOH 1/1), stirring, and centrifuging (4000 rpm, 65’). 100 uL of the supernatant were pipetted and diluted with 400 μL H2O at pH 3. The analytes were separated on a Restek C18 column (5 μm, 1.0 × 3 mm). The mobile phase consisted of water containing 0.1% HCOOH as solvent A and ACN containing 0.1% HCOOH as solvent B. The gradient curve starting with 5% B was changed to 90% B between 0.4 and 0.6 min and further increased to 95% B between 0.6 and 1.2 min. This was maintained until 1.4 min and then reduced and kept at 5% B between 1.45 and 2.0 min. The mass spectrometer was operated in the positive mode. All LC-MS/MS was done using the Agilent RapidFire Analyzer software (version 4.3). The pharmacokinetic parameters were estimated by noncompartmental analysis in the Certara WinNonlin software (version 5.3). A similar study design was run in mice with three groups receiving 2 mg kg^–1 i.v., 4 mg kg^–1 p.o., or 26 mg kg^–1 p.o., and plasma sampling occurring in a composite profile (n = 2 for each time point) up to 7 or 24 h postdose. Male C57/BL6 mice (n = 5 per group) were used to study the influence of P-gp efflux on brain penetration. Two groups of mice were administered RNB-61 by i.v. bolus injection at 1 mg kg^–1 (2 groups). In order to block P-gp activity, an i.v. bolus of 5 mg kg^–1 tariquidar[46] was injected into one group 30 min prior to RNB-61. Plasma was collected at 0.083, 0.25, 0.5, 2, 4, and 7 h postdose in a composite profile. Brain, CSF, and vitreous body were collected at terminal time points 0.5, 2, 4, and 7 h postdose.

[3] = Parallel artificial membrane permeability (PAMPA) assay; type: in vitro ADME; details: for Papp: PAMPA, read-out: PAMPA Peff
Procedure: The general permeability of the compound was assessed using the parallel artificial membrane permeability (PAMPA) assay and the permeability-glycoprotein (P-gp) assay was used to specifically test for brain penetration. PAMPA data were generated as previously reported by our group.[44] The P-gp assay, which evaluates the brain penetration of test compounds, was performed as described elsewhere.[45] Briefly, transfected porcine kidney epithelial (LLC-PK1) cells expressing human or mouse P-gp were cultured on 96-well semipermeable filter membrane plates (Millipore, Darmstadt, Germany). Cells formed a polarized monolayer with tight junctions that acted as a barrier between apical and basolateral compartments. P-gp was expressed in the apical-facing membrane of the monolayer (tightness confirmed using Lucifer yellow). To determine the unidirectional permeability (Papp) of RNB-61, samples were added separately to the apical (for A > B Papp) and basolateral (for B > A Papp) sides of the cell monolayer (i.e., donor compartments), and RNB-61 movement into the respective receiver compartments was measured by LC-MS/MS over a 3 h incubation at 37 °C. The effect of P-gp was measured by expressing the efflux ratio of the unidirectional A > B and B > A Papp values. The mean permeability (A > B and B > A Papp) was determined in the absence of P-gp via the addition of the selective P-gp inhibitor, tariquidar.

[4] = expressed as percentage, compared with CP55,940

Chain of human wild type CB2R (P34972 whole entry): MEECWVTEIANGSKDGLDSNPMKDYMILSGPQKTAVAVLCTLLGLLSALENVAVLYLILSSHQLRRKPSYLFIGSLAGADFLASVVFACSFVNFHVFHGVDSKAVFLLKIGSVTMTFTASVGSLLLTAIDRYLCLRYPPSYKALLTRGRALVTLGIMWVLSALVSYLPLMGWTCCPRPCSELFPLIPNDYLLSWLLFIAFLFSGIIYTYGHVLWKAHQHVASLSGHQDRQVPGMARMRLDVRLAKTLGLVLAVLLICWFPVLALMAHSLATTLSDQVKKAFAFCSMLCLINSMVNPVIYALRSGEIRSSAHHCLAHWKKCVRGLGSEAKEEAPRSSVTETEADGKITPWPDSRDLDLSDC

## Cn1c(C(C)(C)C)cc(=NC(=O)c2cc(C(F)(F)F)ccc2OCC(C)(C)O)n1CC1CCC1 [RNB-61]
Human wild type CB2R; Figure 2
  EC50: 0.33 nM and 1.65 nM
Human wild type CB2R; [4]
  Emax: 100%
  Emax [35S]GTPγS binding: same efficacy (Emax) as CP55,940
[1]; Wistar (rats), mouse strain not stated for this study, rat, mouse, plasma, intravenous, range rats and mice, read-out: volume of distribution at steady state (Vss)
  Vd: 1.6 to 2.4 L/kg
[1]; Wistar (rats), mouse strain not stated for this study, rat, mouse, plasma, in rats and mice, read-out: terminal plasma half-life
  half-life: 4 to 8 h
[1]; rodent single-dose PK
  plasma clearance as share of hepatic blood flow: ~5 % of hepatic blood flow
[2]; iv, 2 mg kg^–1 i.v.
  AUC(0-inf): 8630 ng·h/mL
  Cmax: 1170 ng/mL
  Tmax: 0.25 h
  clearance: 3.9 mL/min/kg
  half-life: 7.7 h
[2]; iv, 2 mg kg^–1 i.v., read-out: Vss
  Vd: 2.4 L/kg
[2]; po, 4 mg kg^–1 p.o.
  AUC(0-inf): 9300 ng·h/mL
  Cmax: 843 ng/mL
  Tmax: 2 h
  bioavailability: 54%
  half-life: 6.4 h
[2]; po, 26 mg kg^–1 p.o.
  AUC(0-inf): 47300 ng·h/mL
  Cmax: 4370 ng/mL
  Tmax: 2 h
  bioavailability: 42%
  half-life: 4.3 h
[3]
  PAMPA %Acc: 6%
  PAMPA %Don: 22%
  PAMPA %Mem: 72%
  PAMPA Peff: 2.14 × 10^–6 cm s^–1
  Papp: 0.9 ×10⁻⁶ cm/s
[3]; Table 1
  Papp: 2.14 ×10⁻⁶ cm/s
